Tests used:
Neutrophil elastase = target: T1, Neutrophil elastase (Homo sapiens, UniProt P08246); assay: Binding affinity for human leukocyte elastase (HLE); Kreact/Kinact
T1 sequence (P08246 whole entry): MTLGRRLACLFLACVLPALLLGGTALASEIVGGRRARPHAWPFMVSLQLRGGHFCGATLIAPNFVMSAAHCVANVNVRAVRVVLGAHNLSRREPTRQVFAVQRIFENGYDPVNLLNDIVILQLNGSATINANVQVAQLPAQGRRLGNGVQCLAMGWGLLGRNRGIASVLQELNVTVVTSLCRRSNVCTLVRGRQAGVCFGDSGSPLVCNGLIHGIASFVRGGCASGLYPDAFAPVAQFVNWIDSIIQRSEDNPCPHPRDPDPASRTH

[1] = target: T2, Neutrophil elastase (Homo sapiens) (UniProt P08246)
T2 sequence (whole entry): T1 sequence (P08246 whole entry)
Description: Inhibition of human leukocyte elastase (HLE)

Row | Ki (Neutrophil elastase) [nM] | K inact [1] [M⁻¹ s⁻¹] | Structure (SMILES)
1 | > 100 |  | CC(C)c1cccc2c1C(=O)N(COc1c(Cl)cccc1Cl)S2(=O)=O
2 | > 1000 |  | CC(C)c1cccc2c1C(=O)N(COc1cccc(C(=O)OCCN3CCOCC3)c1)S2(=O)=O
3 | 2.2 | 3700 | CO[C@H]1C(=O)N2C(C(=O)N3CCC[C@H]3C(=O)O)=C(COC(C)=O)CS(=O)(=O)[C@H]12
4 | > 100 |  | CC(C)c1cccc2c1C(=O)N(COc1cccc(C(=O)NCCN3CCOCC3)c1)S2(=O)=O

Reference: ChEMBL document CHEMBL1128126, “Inhibitors of human leukocyte elastase. 2.1 synthesis and sar of benzisothiazolinylmethyl aryl ethers” (Bioorg Med Chem Lett, 1995)
